Experiment [1] addresses Macrophage colony-stimulating factor 1 receptor (Homo sapiens) (UniProt P07333). Description: Inhibition of human recombinant FMS at 15 nM related to control ULK1.
Experiment [2] addresses Serine/threonine-protein kinase 4 (Homo sapiens) (UniProt Q13043). As to the kind of experiment: Inhibition of human recombinant MST1 at 40 nM in presence of ATP by radiometric assay relative to control.
The target in experiment [3] is T1, Dual specificity tyrosine-phosphorylation-regulated kinase 3 (Homo sapiens) (UniProt O43781).
T1 sequence (whole entry): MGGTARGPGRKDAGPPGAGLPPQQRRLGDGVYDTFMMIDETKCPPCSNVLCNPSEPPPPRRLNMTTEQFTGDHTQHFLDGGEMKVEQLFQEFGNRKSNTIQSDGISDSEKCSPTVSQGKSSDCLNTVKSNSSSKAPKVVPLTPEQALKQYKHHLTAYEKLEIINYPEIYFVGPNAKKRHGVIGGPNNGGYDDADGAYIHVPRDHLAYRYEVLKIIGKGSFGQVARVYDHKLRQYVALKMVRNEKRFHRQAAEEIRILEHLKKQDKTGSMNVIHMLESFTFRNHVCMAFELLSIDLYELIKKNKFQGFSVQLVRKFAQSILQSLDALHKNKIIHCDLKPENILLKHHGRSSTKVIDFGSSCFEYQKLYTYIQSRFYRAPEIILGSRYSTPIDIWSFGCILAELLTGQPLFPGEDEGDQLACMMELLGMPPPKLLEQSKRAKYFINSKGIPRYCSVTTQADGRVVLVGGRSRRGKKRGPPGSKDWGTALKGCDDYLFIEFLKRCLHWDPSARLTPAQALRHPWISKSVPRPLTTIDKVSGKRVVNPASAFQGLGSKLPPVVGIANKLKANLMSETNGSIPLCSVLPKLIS
As to the kind of experiment: Inhibition of human recombinant DYRK3 at 40 nM in presence of ATP by radiometric assay relative to control.

Experiment [4] deals with T2, Ephrin type-B receptor 4 (Homo sapiens) (UniProt P54760).
T2 sequence (whole entry): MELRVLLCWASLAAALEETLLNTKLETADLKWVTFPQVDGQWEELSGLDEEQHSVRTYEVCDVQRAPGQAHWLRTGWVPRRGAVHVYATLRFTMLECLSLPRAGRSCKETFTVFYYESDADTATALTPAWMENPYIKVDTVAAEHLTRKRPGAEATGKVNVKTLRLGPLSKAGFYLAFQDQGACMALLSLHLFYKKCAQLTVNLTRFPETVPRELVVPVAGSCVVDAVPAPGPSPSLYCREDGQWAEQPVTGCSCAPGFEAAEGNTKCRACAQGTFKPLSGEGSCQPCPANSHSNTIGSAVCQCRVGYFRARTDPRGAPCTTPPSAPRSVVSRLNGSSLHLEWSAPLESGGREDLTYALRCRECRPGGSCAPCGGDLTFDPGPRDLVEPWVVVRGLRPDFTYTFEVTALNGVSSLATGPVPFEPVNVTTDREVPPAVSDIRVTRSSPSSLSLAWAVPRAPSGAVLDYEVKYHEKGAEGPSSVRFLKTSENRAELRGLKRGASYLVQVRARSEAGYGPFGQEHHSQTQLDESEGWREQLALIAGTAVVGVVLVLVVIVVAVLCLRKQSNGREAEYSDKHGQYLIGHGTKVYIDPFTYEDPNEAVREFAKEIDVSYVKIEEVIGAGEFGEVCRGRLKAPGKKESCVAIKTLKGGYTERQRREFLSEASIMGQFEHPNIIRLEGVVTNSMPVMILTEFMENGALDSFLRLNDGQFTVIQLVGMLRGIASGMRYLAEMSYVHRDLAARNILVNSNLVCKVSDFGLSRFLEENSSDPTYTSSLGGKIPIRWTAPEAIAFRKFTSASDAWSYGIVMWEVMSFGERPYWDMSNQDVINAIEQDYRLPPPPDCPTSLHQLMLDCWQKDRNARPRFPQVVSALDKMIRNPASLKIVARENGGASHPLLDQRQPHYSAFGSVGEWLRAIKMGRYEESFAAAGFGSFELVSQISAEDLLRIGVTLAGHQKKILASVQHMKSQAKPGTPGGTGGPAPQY
As to the kind of experiment: Inhibition of human recombinant EphB4 at 40 nM related to control ULK1.

For experiment [5], the target named is T3, Testis-specific serine/threonine-protein kinase 2 (Homo sapiens) (UniProt Q96PF2).
T3 sequence (whole entry): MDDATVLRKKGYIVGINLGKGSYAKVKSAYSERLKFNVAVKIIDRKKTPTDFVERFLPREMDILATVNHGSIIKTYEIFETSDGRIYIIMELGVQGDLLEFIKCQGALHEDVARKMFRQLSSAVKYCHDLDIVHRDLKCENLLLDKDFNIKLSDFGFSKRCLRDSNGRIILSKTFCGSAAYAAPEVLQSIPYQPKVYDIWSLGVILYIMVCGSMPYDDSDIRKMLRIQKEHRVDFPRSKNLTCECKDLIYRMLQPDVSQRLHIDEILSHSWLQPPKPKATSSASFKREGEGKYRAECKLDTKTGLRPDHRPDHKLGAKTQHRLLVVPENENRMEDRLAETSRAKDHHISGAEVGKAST
Description: Inhibition of human recombinant TSSK2 at 40 nM in presence of ATP by radiometric assay relative to control.

The target in experiment [6] is T4, Serine/threonine-protein kinase ULK3 (Homo sapiens) (UniProt Q6PHR2).
T4 sequence (whole entry): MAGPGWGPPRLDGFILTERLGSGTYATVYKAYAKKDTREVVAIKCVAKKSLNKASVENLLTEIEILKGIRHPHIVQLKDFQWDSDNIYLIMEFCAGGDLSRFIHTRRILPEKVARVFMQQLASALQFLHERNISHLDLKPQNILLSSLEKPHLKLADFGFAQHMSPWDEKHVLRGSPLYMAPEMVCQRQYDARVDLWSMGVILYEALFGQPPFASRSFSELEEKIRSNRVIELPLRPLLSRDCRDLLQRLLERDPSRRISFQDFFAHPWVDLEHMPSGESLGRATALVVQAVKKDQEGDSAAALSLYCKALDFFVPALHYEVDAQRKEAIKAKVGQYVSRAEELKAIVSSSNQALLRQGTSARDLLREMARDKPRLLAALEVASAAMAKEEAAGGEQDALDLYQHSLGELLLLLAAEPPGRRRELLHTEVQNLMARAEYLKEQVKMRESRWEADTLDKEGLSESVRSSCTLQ
As to the kind of experiment: Inhibition of human recombinant ULK3 at 500 nM in presence of ATP by radiometric assay relative to control.

SMILES strings stand for the structures.

Sequence of Serine/threonine-protein kinase 4 (Homo sapiens) (Q13043 whole entry, looked up): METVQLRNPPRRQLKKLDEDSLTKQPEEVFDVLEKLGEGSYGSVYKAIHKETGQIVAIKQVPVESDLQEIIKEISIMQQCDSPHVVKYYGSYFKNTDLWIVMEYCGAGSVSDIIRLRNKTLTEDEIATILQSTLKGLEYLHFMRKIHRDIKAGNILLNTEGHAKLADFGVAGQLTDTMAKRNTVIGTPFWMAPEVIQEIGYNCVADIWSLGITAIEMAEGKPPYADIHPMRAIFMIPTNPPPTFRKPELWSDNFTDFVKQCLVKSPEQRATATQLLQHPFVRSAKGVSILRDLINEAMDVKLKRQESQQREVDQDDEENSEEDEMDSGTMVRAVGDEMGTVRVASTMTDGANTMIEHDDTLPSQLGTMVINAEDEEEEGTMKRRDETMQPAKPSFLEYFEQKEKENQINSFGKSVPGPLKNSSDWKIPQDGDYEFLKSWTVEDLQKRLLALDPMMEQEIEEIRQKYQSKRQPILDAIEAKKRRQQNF
Sequence of Macrophage colony-stimulating factor 1 receptor (Homo sapiens) (P07333 whole entry): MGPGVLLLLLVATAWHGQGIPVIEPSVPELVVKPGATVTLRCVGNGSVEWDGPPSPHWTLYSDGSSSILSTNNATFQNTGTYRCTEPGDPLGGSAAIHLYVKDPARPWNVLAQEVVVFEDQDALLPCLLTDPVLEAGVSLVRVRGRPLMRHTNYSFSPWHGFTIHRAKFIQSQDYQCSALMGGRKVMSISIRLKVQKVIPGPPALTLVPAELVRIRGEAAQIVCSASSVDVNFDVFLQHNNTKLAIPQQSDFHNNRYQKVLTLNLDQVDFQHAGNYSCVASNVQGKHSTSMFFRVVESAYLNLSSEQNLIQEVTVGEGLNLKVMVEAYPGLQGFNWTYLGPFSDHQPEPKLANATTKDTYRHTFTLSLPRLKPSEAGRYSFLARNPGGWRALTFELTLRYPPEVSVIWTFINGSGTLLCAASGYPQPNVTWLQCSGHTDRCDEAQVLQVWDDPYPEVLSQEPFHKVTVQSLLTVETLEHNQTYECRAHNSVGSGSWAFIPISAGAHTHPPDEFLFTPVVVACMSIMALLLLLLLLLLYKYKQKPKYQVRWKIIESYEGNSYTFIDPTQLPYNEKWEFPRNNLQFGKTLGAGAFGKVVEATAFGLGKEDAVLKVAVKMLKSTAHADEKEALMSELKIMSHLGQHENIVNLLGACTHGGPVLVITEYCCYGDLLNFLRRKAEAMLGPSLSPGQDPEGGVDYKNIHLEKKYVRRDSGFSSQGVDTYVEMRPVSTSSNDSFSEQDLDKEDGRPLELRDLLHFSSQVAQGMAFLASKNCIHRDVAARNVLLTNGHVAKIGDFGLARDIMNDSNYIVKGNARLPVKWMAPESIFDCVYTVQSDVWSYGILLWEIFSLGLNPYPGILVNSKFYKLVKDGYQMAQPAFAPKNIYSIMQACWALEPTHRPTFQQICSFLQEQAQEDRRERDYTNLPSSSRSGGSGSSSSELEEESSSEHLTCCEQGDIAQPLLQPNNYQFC

As for `CC(C)[C@H](NC(=O)c1cc(-c2cnn3cc(-c4ccc(OCCN5CCCCC5)cc4)cnc23)cs1)C(F)(F)F`, the fold change (FC) in experiment [1] was 0.19.

As usually defined, the inhibition is how much of the control response was suppressed. As for `O=C(N[C@@H](C1CC1)C(F)(F)F)c1cc(-c2cnn3cc(-c4ccc(F)cc4)cnc23)cs1`, the inhibition in experiment [2] amounted to 0%; in experiment [3], 30%; in experiment [5], 0%. The fold change (FC) in experiment [4] stood at 0.

As for `CNC(=O)c1ccccc1Oc1nc(Nc2cc(OC)c(OC)c(OC)c2)ncc1Br`, the inhibition in experiment [6] worked out at 84%.
